Laboratory results: PubChem BioAssay (NCI)
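Assay format: 96-well plates, 48-hour exposure. TGI: concentration producing complete growth inhibition.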

Assays:
Test in all cases: NCI anticancer screen, dose series, 48 h
A498 renal = system: A498 renal
A549 NSCLC = system: A549 NSCLC
BT-549 breast = system: BT-549 breast
CAKI-1 renal = system: CAKI-1 renal
COLO 205 colon = system: COLO 205 colon
HCT-116 colon = system: HCT-116 colon
HL-60(TB) leukemia = system: HL-60(TB) leukemia
HOP-62 NSCLC = system: HOP-62 NSCLC
HOP-92 NSCLC = system: HOP-92 NSCLC
MDA-MB-231 breast = system: MDA-MB-231 breast
MDA-MB-435 = system: MDA-MB-435
NCI-H226 lung = system: NCI-H226 lung
NCI-H460 lung = system: NCI-H460 lung
NCI/ADR-RES ovarian = system: NCI/ADR-RES ovarian
RXF 393 renal = system: RXF 393 renal
SF-539 CNS = system: SF-539 CNS
SK-MEL-28 melanoma = system: SK-MEL-28 melanoma
SN12C renal = system: SN12C renal
SW-620 colon = system: SW-620 colon
TK-10 renal = system: TK-10 renal

SMILES	TGI (A498 renal)	TGI (A549 NSCLC)	TGI (BT-549 breast)	TGI (CAKI-1 renal)	TGI (COLO 205 colon)	TGI (HCT-116 colon)	TGI (HL-60(TB) leukemia)	TGI (HOP-62 NSCLC)	TGI (HOP-92 NSCLC)	TGI (MDA-MB-231 breast)	TGI (MDA-MB-435)	TGI (NCI-H226 lung)	TGI (NCI-H460 lung)	TGI (NCI/ADR-RES ovarian)	TGI (RXF 393 renal)	TGI (SF-539 CNS)	TGI (SK-MEL-28 melanoma)	TGI (SN12C renal)	TGI (SW-620 colon)	TGI (TK-10 renal)
CC(C)=CCNc1ncnc2nc[nH]c12	> 100 µM	> 100 µM	> 100 µM	> 100 µM	> 100 µM	> 100 µM	> 100 µM	> 100 µM	> 100 µM	> 100 µM	> 100 µM	> 100 µM	> 100 µM	> 100 µM	> 100 µM	> 100 µM	> 100 µM	> 100 µM	> 100 µM	> 100 µM
COC(=O)c1ccccc1C1CN=NC12Cc1ccc(C)c(C)c1C2=O (configuration not stated)	> 100 µM	> 100 µM	> 100 µM	> 100 µM	> 100 µM	> 100 µM	69.7 µM	> 100 µM	> 100 µM	> 100 µM	> 100 µM	> 100 µM	> 100 µM	> 100 µM	> 100 µM	> 100 µM	> 100 µM	> 100 µM	> 100 µM	> 100 µM
CCCCc1c2c(nc3c1CCCC3O)CCCC2 (configuration not stated)	> 100 µM	> 100 µM	> 100 µM	> 100 µM	> 100 µM	> 100 µM	> 100 µM	> 100 µM	> 100 µM	> 100 µM	> 100 µM	> 100 µM	> 100 µM	> 100 µM	> 100 µM	> 100 µM	–	> 100 µM	> 100 µM	> 100 µM
COc1cc(CNc2ccc3nc4n(c(=O)c3c2)CCCCC4)cc(OC)c1OC	> 100 µM	> 100 µM	71.6 µM	> 100 µM	> 100 µM	> 100 µM	> 100 µM	> 100 µM	> 100 µM	> 100 µM	> 100 µM	> 100 µM	> 100 µM	> 100 µM	> 100 µM	> 100 µM	> 100 µM	> 100 µM	> 100 µM	> 100 µM
Oc1cc(Br)cc2cccnc12	24.3 µM	> 87.2 µM	98 µM	39 µM	34.8 µM	16.8 µM	0.82 µM	81.9 µM	38 µM	19.1 µM	> 60 µM	58 µM	17 µM	8.26 µM	30.4 µM	> 45.1 µM	> 100 µM	> 55.6 µM	16.9 µM	> 100 µM
COc1ccc(-c2c(=O)[nH]n3c(=S)nc(-c4ccccc4)[nH]c23)cc1OC	33.1 µM	> 100 µM	37.6 µM	51.6 µM	31.3 µM	31.4 µM	39.3 µM	84.9 µM	37 µM	97.8 µM	39.2 µM	40.7 µM	> 100 µM	55.7 µM	32.4 µM	–	54.7 µM	37.3 µM	83.8 µM	53.1 µM
Nc1nc(N)c(C2=CCNCC2)c(=O)[nH]1	> 100 µM	> 100 µM	> 100 µM	> 100 µM	> 100 µM	> 100 µM	> 100 µM	> 100 µM	> 100 µM	> 100 µM	> 100 µM	> 100 µM	> 100 µM	> 100 µM	> 100 µM	> 100 µM	> 100 µM	> 100 µM	> 100 µM	–
Nc1c2c(=O)[nH]c(=O)c2c(N)c2c(=O)c3ccccc3c(=O)c12	2.85 µM	> 23.1 µM	3.71 µM	22.9 µM	1.85 µM	> 100 µM	> 100 µM	6.85 µM	51.9 µM	> 29.5 µM	2.46 µM	4.96 µM	2.52 µM	5.9 µM	35.6 µM	4.52 µM	3.98 µM	3.17 µM	4.65 µM	40.7 µM
Cc1nc2sc3ccccc3n2c(=O)c1N=Nc1ccc(Br)cc1	> 100 µM	> 100 µM	> 100 µM	> 100 µM	> 100 µM	> 100 µM	> 100 µM	> 100 µM	> 100 µM	> 100 µM	> 100 µM	> 100 µM	> 100 µM	> 100 µM	> 100 µM	> 100 µM	> 100 µM	> 100 µM	> 100 µM	> 100 µM
O=c1[nH]/c(=C/c2ccc(OCc3ccccc3)cn2)c(=O)[nH]/c1=C/c1ccc([N+](=O)[O-])cc1	> 84.3 µM	> 100 µM	> 100 µM	> 73.1 µM	> 100 µM	> 100 µM	> 100 µM	> 100 µM	> 100 µM	> 100 µM	> 100 µM	> 100 µM	> 100 µM	> 100 µM	> 100 µM	> 100 µM	> 100 µM	> 100 µM	> 100 µM	> 100 µM
CN(CCCCN1CCCC1)CCCN(C)C(=O)Cc1ccc(Cl)c(Cl)c1	30.7 µM	44.5 µM	32.5 µM	49.6 µM	28.9 µM	28.3 µM	34.1 µM	34.4 µM	21.3 µM	26.1 µM	10.2 µM	51.9 µM	39.8 µM	> 100 µM	29.6 µM	24.3 µM	3.51 µM	37.8 µM	42.6 µM	33.7 µM
Oc1ccccc1/C=N/Nc1nc(N/N=C/c2ccccc2O)nc(N/N=C/c2ccccc2O)n1	> 100 µM	> 100 µM	> 100 µM	> 100 µM	> 100 µM	> 100 µM	> 100 µM	> 100 µM	81.7 µM	> 100 µM	> 100 µM	> 100 µM	> 100 µM	> 100 µM	> 100 µM	> 100 µM	> 100 µM	> 100 µM	> 100 µM	> 100 µM
